Source: patent US9873709B2 (priority 2013, dated 2018)
Where two headings read alike, the source gives them in different places.

Columns and labels:
[1] = test system: JAK1-dependent STAT6 phosphorylation downstream of IL-13 stimulation in TF-1 human erythroleukemia cells; test: cells; conditions: TF-1, read-out: IL-13-pSTAT6 IC50
[2] = target: isolated recombinant JAK2 kinase domain (Homo sapiens (Human), UniProt O60674); conditions: read-out: JAK2 Ki
[3] = test system: JAK1-dependent STAT6 phosphorylation downstream of IL-13 stimulation in BEAS-2B human bronchial epithelial cells; test: cells; conditions: read-out: IL13-pSTAT6 BEASB2B IC50
Protocol: Inhibitor potency (EC50) was determined in cell-based assays designed to measure JAK1 dependent STAT phosphorylation.
Prior to use in the assays, TF-1 cells were starved of GM-CSF overnight in OptiMEM medium (Life Technologies, Grand Island, N.Y.) supplemented with 0.5% charcoal/dextran stripped fetal bovine serum (FBS), 0.1 mM non-essential amino acids (NEAA), and 1 mM sodium pyruvate. The assays were run in 384-well plates in serum-free OptiMEM medium using 300,000 cells per well. In a second assay approach, BEAS-2B human bronchial epithelial cells obtained from ATCC were plated at 100,000 cells per well of a 96-well plate one day prior to the experiment. The BEAS-2B assay was run in complete growth medium (bronchial epithelial basal medium plus bulletkit; Lonza; Basel, Switzerland).
Test compounds were serially diluted 1:2 in DMSO and then diluted 1:50 in medium just before use. Diluted compounds were added to the cells, for a final DMSO concentration of 0.2%, and incubated for 30 min (for the TF-1 assay) or 1 hr (for the BEAS-2B assay) at 37° C. Then, cells were stimulated with human recombinant cytokine at their respective EC90 concentrations, as previously determined for each individual lot. […] The resultant samples were frozen in the plates at −80° C. Compound mediated inhibition of STAT6 phosphorylation was measured in the cell lysates using MesoScale Discovery (MSD) technology (Gaithersburg, Md.).

[4] = isolated recombinant JAK2 kinase domain, 25 μM ATP

Chain of isolated recombinant JAK2 kinase domain (O60674 849-1124): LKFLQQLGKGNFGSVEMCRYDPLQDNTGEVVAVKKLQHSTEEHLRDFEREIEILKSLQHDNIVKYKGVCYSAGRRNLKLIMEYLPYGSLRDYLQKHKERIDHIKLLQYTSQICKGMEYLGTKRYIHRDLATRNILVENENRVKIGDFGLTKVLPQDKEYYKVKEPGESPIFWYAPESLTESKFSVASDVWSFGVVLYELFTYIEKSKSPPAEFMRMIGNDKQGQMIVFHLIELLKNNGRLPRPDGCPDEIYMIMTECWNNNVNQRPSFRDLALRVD

CN1CCC(N(C)C(=O)c2ccc(Nc3nc4c(N5CCN(C(=O)N6CC(C)(C)C6)CC5)cccn4n3)cc2)CC1 [Example 1-34, 4-[[8-[4-(3,3-dimethylazetidine-1-carbonyl)piperazin-1-yl]-[1,2,4]triazolo[1,5-a]pyridin-2-yl]amino]-N-methyl-N-(1-methyl-4-piperidyl)benzamide]
IC50 [1]: 0.915 µM
Ki [2, 4]: 0.00861 µM

CCc1ccc(C2(O)CCN(c3cccn4nc(Nc5ccc(C(=O)N(C)C6CCN(C)CC6)cc5)nc34)CC2)cc1 [Example 1-36, 4-[[8-[4-(4-ethylphenyl)-4-hydroxy-1-piperidyl]-[1,2,4]triazolo[1,5-a]pyridin-2-yl]amino]-N-methyl-N-(1-methyl-4-piperidyl)benzamide]
IC50 [1]: 0.142 µM
Ki [2, 4]: 0.00432 µM

COCCOc1cc(COC2CCN(c3cccn4nc(Nc5ccc(C(=O)N(C)C6CCN(C)CC6)cc5)nc34)CC2)ccn1 [Example 1-44, 4-[[8-[4-[[2-(2-methoxyethoxy)-4-pyridyl]methoxy]-1-piperidyl]-[1,2,4]triazolo[1,5-a]pyridin-2-yl]amino]-N-methyl-N-(1-methyl-4-piperidyl)benzamide]
IC50 [1]: 0.168 µM
Ki [2, 4]: 0.00703 µM

CN1CCN(C2CCN(C(=O)c3ccc(Nc4nc5c(N6CCC(O)(c7ccc(Cl)cc7)CC6)cccn5n4)cc3)CC2)CC1 [Example 1-117, [4-[[8-[4-(4-chlorophenyl)-4-hydroxy-1-piperidyl]-[1,2,4]triazolo[1,5-a]pyridin-2-yl]amino]phenyl]-[4-(4-methylpiperazin-1-yl)-1-piperidyl]methanone]
IC50 [1]: 0.0292 µM
Ki [2, 4]: 0.00085 µM

CC1CN(C2CCN(C(=O)c3ccc(Nc4nc5c(N6CCC(O)(c7ccc(Cl)cc7)CC6)cccn5n4)cc3)CC2)CC(C)O1 (stereo not shown) [Example 1-118, [4-[[8-[4-(4-chlorophenyl)-4-hydroxy-1-piperidyl]-[1,2,4]triazolo[1,5-a]pyridin-2-yl]amino]phenyl]-[4-(2,6-dimethylmorpholin-4-yl)-1-piperidyl]methanone]
IC50 [3]: 0.112 µM

O=C(c1ccc(Nc2nc3c(N4CCC(O)(c5ccc(Cl)cc5)CC4)cccn3n2)cc1)N1CCN(Cc2cccnc2)CC1 [Example 1-123, [4-[[8-[4-(4-chlorophenyl)-4-hydroxy-1-piperidyl]-[1,2,4]triazolo[1,5-a]pyridin-2-yl]amino]phenyl]-[4-(3-pyridylmethyl)piperazin-1-yl]methanone]
IC50 [1]: 0.0258 µM
Ki [2, 4]: 0.0007 µM

CC(C)N1CCC(CN(C)C(=O)c2ccc(Nc3nc4c(N5CCC(O)(c6ccc(Cl)cc6)CC5)cccn4n3)cc2)C1 (stereo not shown) [Example 1-129, 4-[[8-[4-(4-chlorophenyl)-4-hydroxy-1-piperidyl]-[1,2,4]triazolo[1,5-a]pyridin-2-yl]amino]-N-[(1-isopropylpyrrolidin-3-yl)methyl]-N-methyl-benzamide]
IC50 [1]: 0.0377 µM
Ki [2, 4]: 0.00174 µM

CN(Cc1cccnc1)C(=O)c1ccc(Nc2nc3c(N4CCC(O)(c5ccc(Cl)cc5)CC4)cccn3n2)cc1 [Example 1-138, 4-[[8-[4-(4-chlorophenyl)-4-hydroxy-1-piperidyl]-[1,2,4]triazolo[1,5-a]pyridin-2-yl]amino]-N-methyl-N-(3-pyridylmethyl)benzamide]
IC50 [1]: 0.135 µM
Ki [2, 4]: 0.00356 µM

CN(C)CCN1CCN(C(=O)c2ccc(Nc3nc4c(N5CCC(O)(c6ccc(Cl)cc6)CC5)cccn4n3)cc2)CC1 [Example 1-139, [4-[[8-[4-(4-chlorophenyl)-4-hydroxy-1-piperidyl]-[1,2,4]triazolo[1,5-a]pyridin-2-yl]amino]phenyl]-[4-[2-(dimethylamino)ethyl]piperazin-1-yl]methanone]
IC50 [1]: 0.0206 µM
Ki [2, 4]: 0.00195 µM

O=C(c1ccc(Nc2nc3c(N4CCC(O)(c5ccc(Cl)cc5)CC4)cccn3n2)cc1)N1CCCC1c1ccncc1 (stereo not shown) [Example 1-147, [4-[[8-[4-(4-chlorophenyl)-4-hydroxy-1-piperidyl]-[1,2,4]triazolo[1,5-a]pyridin-2-yl]amino]phenyl]-[2-(4-pyridyl)pyrrolidin-1-yl]methanone]
IC50 [1]: 0.0665 µM
Ki [2, 4]: 0.00141 µM

CNC(=O)C1CN(C(=O)c2ccc(Nc3nc4c(N5CCC(O)(c6ccc(Cl)cc6)CC5)cccn4n3)cc2)CCN1Cc1ccccc1 (stereo not shown) [Example 1-153, 1-benzyl-4-[4-[[8-[4-(4-chlorophenyl)-4-hydroxy-1-piperidyl]-[1,2,4]triazolo[1,5-a]pyridin-2-yl]amino]benzoyl]-N-methyl-piperazine-2-carboxamide]
IC50 [1]: 0.026 µM
Ki [2, 4]: 0.00114 µM

CN1CCC(CCNC(=O)c2ccc(Nc3nc4c(N5CCC(O)(c6ccc(Cl)cc6)CC5)cccn4n3)cc2)CC1 [Example 1-154, 4-[[8-[4-(4-chlorophenyl)-4-hydroxy-1-piperidyl]-[1,2,4]triazolo[1,5-a]pyridin-2-yl]amino]-N-[2-(1-methyl-4-piperidyl)ethyl]benzamide]
IC50 [1]: 0.0373 µM
Ki [2, 4]: 0.00064 µM

N#CCCN1CCN(C(=O)c2ccc(Nc3nc4c(N5CCC(O)(c6ccc(Cl)cc6)CC5)cccn4n3)cc2)CC1 [Example 1-167, 3-[4-[4-[[8-[4-(4-chlorophenyl)-4-hydroxy-1-piperidyl]-[1,2,4]triazolo[1,5-a]pyridin-2-yl]amino]benzoyl]piperazin-1-yl]propanenitrile]
IC50 [1]: 0.0121 µM
Ki [2, 4]: 0.00286 µM

CN1CCCC(CN(C)C(=O)c2ccc(Nc3nc4c(N5CCC(O)(c6ccc(Cl)cc6)CC5)cccn4n3)cc2)C1 (stereo not shown) [Example 1-170, 4-[[8-[4-(4-chlorophenyl)-4-hydroxy-1-piperidyl]-[1,2,4]triazolo[1,5-a]pyridin-2-yl]amino]-N-methyl-N-[(1-methyl-3-piperidyl)methyl] benzamide]
IC50 [1]: 0.0155 µM
Ki [2, 4]: 0.00098 µM

O=C(NCCN1CCCCC1)c1ccc(Nc2nc3c(N4CCC(O)(c5ccc(Cl)cc5)CC4)cccn3n2)cc1 [Example 1-173, 4-[[8-[4-(4-chlorophenyl)-4-hydroxy-1-piperidyl]-[1,2,4]triazolo[1,5-a]pyridin-2-yl]amino]-N-[2-(1-piperidyl)ethyl]benzamide]
IC50 [1]: 0.0231 µM
Ki [2, 4]: 0.00245 µM

CNC(=O)C1CN(C(C)C)CCN1C(=O)c1ccc(Nc2nc3c(N4CCC(O)(c5ccc(Cl)cc5)CC4)cccn3n2)cc1 (stereo not shown) [Example 1-174, 1-[4-[[8-[4-(4-chlorophenyl)-4-hydroxy-1-piperidyl]-[1,2,4]triazolo[1,5-a]pyridin-2-yl]amino]benzoyl]-4-isopropyl-N-methyl-piperazine-2-carboxamide]
IC50 [1]: 0.0311 µM
Ki [2, 4]: 0.00231 µM

CN1CCC(OC(=O)c2ccc(Nc3nc4c(N5CCC(O)(c6ccc(Cl)cc6)CC5)cccn4n3)cc2)CC1 [Example 1-178, (1-methyl-4-piperidyl) 4-[[8-[4-(4-chlorophenyl)-4-hydroxy-1-piperidyl]-[1,2,4]triazolo[1,5-a]pyridin-2-yl]amino]benzoate]
IC50 [1]: 0.0983 µM
Ki [2, 4]: 0.00107 µM

CN1CCC(N(C)C(=O)c2ccc(Nc3nc4c(N5CCC(CO)(c6ccc(Cl)cc6)CC5)cccn4n3)cc2)CC1 [Example 1-246]
IC50 [1]: 0.0054 µM
Ki [2]: 0.00033 µM

CN1CCC(N(C)C(=O)c2ccc(Nc3nc4c(N5CCC(c6ccc(Cl)cc6)(C(O)C(F)(F)F)CC5)cccn4n3)cc2)CC1 (stereo not shown) [Example 1-253, 4-[[8-[4-(4-chlorophenyl)-4-(2,2,2-trifluoro-1-hydroxy-ethyl)-1-piperidyl]-[1,2,4]triazolo[1,5-a]pyridin-2-yl]amino]-N-methyl-N-(1-methyl-4-piperidyl)benzamide]
IC50 [3]: 0.418 µM

CN1CCC(N(C)C(=O)c2ccc(Nc3nc4c(N5CCC(c6ccc(Cl)cc6)(C(O)CO)CC5)cccn4n3)cc2)CC1 (stereo not shown) [Example 1-270, 4-[[8-[4-(4-chlorophenyl)-4-(1,2-dihydroxyethyl)-1-piperidyl]-[1,2,4]triazolo[1,5-a]pyridin-2-yl]amino]-N-methyl-N-(1-methyl-4-piperidyl)benzamide]
IC50 [3]: 0.114 µM

O=C(Cn1cc(Nc2nc3c(N4CCC(CO)(c5ccc(Cl)cc5)CC4)cccn3n2)cn1)N1CCC(CN2CCOCC2)CC1 [Example 1-289, 2-[4-[[8-[4-(4-chlorophenyl)-4-(hydroxymethyl)-1-piperidyl]-[1,2,4]triazolo[1,5-a]pyridin-2-yl]amino]pyrazol-1-yl]-1-[4-(morpholinomethyl)-1-piperidyl]ethanone]
IC50 [3]: 0.0081 µM

CN1CCC(N(C)C(=O)c2ccc(Nc3nc4c(C5=CCC(CC#N)(c6ccc(Cl)cc6)CC5)cccn4n3)cc2)CC1 (stereo not shown) [Example 1-294, 4-([8-[4-(4-chlorophenyl)-4-(cyanomethyl)cyclohex-1-en-1-yl]-[1,2,4]triazolo[1,5-a]pyridin-2-yl]amino)-N-methyl-N-(1-methylpiperidin-4-yl)benzamide]
IC50 [1]: 0.0627 µM
Ki [2]: 0.0004 µM

CC(C)CN1CCC(N(C)C(=O)Cn2cc(Nc3nc4c(C5=CCN(C(=O)CCC(F)(F)F)CC5)cccn4n3)cn2)CC1 [Example 1-297, N-methyl-N-[1-(2-methylpropyl)piperidin-4-yl]-2-[4-([8-[1-(4,4,4-trifluorobutanoyl)-1,2,3,6-tetrahydropyridin-4-yl]-[1,2,4]triazolo[1,5-a]pyridin-2-yl]amino)-1H-pyrazol-1-yl]acetamide]
IC50 [1]: 0.0367 µM
Ki [2]: 0.00944 µM

CN1CCC(N(C)C(=O)c2ccc(Nc3nc4c(N5CCC(CC(N)=O)(c6ccc(Cl)cc6)CC5)cccn4n3)cc2)CC1 [Example 1-298]
IC50 [1]: 0.125 µM
Ki [2, 4]: 0.00045 µM

CN1CCC(N(C)C(=O)c2ccc(Nc3nc4c(N5CCC(CC(=O)N(C)C)(c6ccc(Cl)cc6)CC5)cccn4n3)cc2)CC1 [Example 1-300, 4-([8-[4-(4-chlorophenyl)-4-[(dimethylcarbamoyl)methyl]piperidin-1-yl]-[1,2,4]triazolo[1,5-a]pyridin-2-yl]amino)-N-methyl-N-(1-methylpiperidin-4-yl)benzamide]
IC50 [1]: 0.0263 µM
Ki [2, 4]: 0.00055 µM
